Counter-ions that a name gives are not always drawn.
Target: T1, human TRPC6 (Homo sapiens, UniProt Q9Y210)
T1 construct: expressed in transfected cells
T1 sequence (Q9Y210 1-931): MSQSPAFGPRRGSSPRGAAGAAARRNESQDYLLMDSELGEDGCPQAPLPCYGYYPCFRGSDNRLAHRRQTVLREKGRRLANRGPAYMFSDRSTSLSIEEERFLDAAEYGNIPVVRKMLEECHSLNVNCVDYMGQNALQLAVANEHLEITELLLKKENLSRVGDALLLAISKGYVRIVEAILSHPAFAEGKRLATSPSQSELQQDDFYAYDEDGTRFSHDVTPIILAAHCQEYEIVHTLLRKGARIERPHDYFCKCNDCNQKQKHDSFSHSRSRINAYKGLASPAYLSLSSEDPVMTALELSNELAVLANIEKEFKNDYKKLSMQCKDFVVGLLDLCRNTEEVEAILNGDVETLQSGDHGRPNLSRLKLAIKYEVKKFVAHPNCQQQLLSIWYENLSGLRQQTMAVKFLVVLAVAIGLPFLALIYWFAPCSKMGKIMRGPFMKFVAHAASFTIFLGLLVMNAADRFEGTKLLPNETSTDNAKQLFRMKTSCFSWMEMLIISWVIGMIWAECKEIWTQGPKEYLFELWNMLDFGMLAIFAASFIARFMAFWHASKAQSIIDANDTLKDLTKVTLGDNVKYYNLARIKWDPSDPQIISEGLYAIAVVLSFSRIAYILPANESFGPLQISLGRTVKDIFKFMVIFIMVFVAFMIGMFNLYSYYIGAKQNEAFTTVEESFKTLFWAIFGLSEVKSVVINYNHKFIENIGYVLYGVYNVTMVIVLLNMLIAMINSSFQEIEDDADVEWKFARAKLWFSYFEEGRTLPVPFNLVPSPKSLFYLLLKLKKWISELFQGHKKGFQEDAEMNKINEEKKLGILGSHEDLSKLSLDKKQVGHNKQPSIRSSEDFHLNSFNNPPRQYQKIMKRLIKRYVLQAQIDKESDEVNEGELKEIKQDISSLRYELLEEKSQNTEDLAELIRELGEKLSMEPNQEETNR
Assay: TRPC6 calcium flux assay (FLIPR, OAG-stimulated calcium influx)
Format: cell-based
Conditions: HEK293 cells stably transfected with human TRPC6, read-out: hTRPC6 Potency
How it was run: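 IC50 derived by plotting background-corrected peak fluorescence (180 s window, normalized to OAG-triggered signal vs buffer) against dose. Stable human TRPC6 HEK293 line was dye-loaded, exposed to compound 25 min, then challenged with 50 uM final OAG in 2 mM Ca2+ HEPES buffer pH 7.2, 0.5% DMSO.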

IC50 | SMILES
1.78 µM | CN(C(=O)Cn1c(N2CC[C@@H](F)[C@H](N)C2)nc2cc(F)c(F)cc21)C1CCS(=O)(=O)C1 (mixture of isomers) [Example 525, 2-(2-((3R,4R)-3-amino-4-fluoropiperidin-1-yl)-5,6-difluoro-1H-benzo[d]imidazol-1-yl)-N-(1,1-dioxidotetrahydrothiophen-3-yl)-N-methylacetamide]
0.0983 µM | C[C@H]1COCCN1C(=O)Cn1c(N2CC[C@@H](F)[C@H](N)C2)nc2ccc(F)cc21 [Example 678, 2-(2-((3R,4R)-3-amino-4-fluoropiperidin-1-yl)-6-fluoro-1H-benzo[d]imidazol-1-yl)-1-((S)-3-methylmorpholino)ethan-1-one]
> 1.75 µM | C[C@@H](NC(=O)Cn1c(N2CC[C@@H](F)[C@H](N)C2)nc2ccc(F)cc21)c1ccccn1 [Example 674, 2-(2-((3R,4R)-3-amino-4-fluoropiperidin-1-yl)-6-fluoro-1H-benzo[d]imidazol-1-yl)-N-((R)-1-(pyridin-2-yl)ethyl)acetamide]
0.0159 µM | C[C@H](c1ccc(Cl)cn1)n1c(N2CC[C@@H](F)[C@H](N)C2)nc2cc(Cl)ccc21 [Example 219, (3R,4R)-1-(5-chloro-1-((R)-1-(5-chloropyridin-2-yl)ethyl)-1H-benzo[d]imidazol-2-yl)-4-fluoropiperidin-3-amine hydrochloride]
> 3.75 µM | N[C@@H]1CN(c2nc3ccc(F)cc3n2CC(=O)N[C@H]2CCOC2)CC[C@H]1F [Example 675, 2-(2-((3R,4R)-3-amino-4-fluoropiperidin-1-yl)-6-fluoro-1H-benzo[d]imidazol-1-yl)-N-((S)-tetrahydrofuran-3-yl)acetamide]
0.0362 µM | COc1ccc2c(c1)nc(N1CCC(F)(F)[C@H](N)C1)n2Cc1ccc(C#N)cn1 [Example 137, 6-((2-((3R)-3-amino-4,4-difluoro-1-piperidinyl)-5-methoxy-1H-benzimidazol-1-yl)methyl)-3-pyridinecarbonitrile]
0.000471 µM | N#Cc1cnc(Cn2c(N3CC[C@@H](F)[C@H](N)C3)nc3cc(F)ccc32)nc1 [Example 443, 2-((2-((3R,4R)-3-amino-4-fluoropiperidin-1-yl)-5-fluoro-1H-benzo[d]imidazol-1-yl)methyl)pyrimidine-5-carbonitrile]
0.544 µM | N#Cc1ccc(Cn2c(N3CC[C@@H](F)[C@@H](N)C3)nc3ccccc32)cc1 [Example 171, 4-((2-((3S,4R)-3-amino-4-fluoropiperidin-1-yl)-1H-benzo[d]imidazol-1-yl)methyl)benzonitrile]
> 3.75 µM | C[C@H](c1ccc(C(F)(F)F)cc1)n1c(N2CC[C@@H](F)[C@H](N)C2)nc2cc(F)c(F)cc21 [Example 336, (3R,4R)-1-(5,6-difluoro-1-((1R)-1-(4-(trifluoromethyl)phenyl)ethyl)-1H-benzimidazol-2-yl)-4-fluoro-3-piperidinamine]
0.000389 µM | N#Cc1ccc(Cn2c(N3CC[C@@H](F)[C@H](N)C3)nc3c(F)cc(F)cc32)nc1 [Example 63, 6-((2-((3R,4R)-3-amino-4-fluoropiperidin-1-yl)-4,6-difluoro-1H-benzo[d]imidazol-1-yl)methyl)nicotinonitrile]
0.00152 µM | N#Cc1ccc(Cn2c(N3CC[C@@H](F)[C@H](N)C3)nc3ccc(C#N)cc32)nc1 [Example 53, 2-((3R,4R)-3-amino-4-fluoropiperidin-1-yl)-1-((5-cyanopyridin-2-yl)methyl)-1H-benzo[d]imidazole-6-carbonitrile]
0.00359 µM | N[C@@H]1CN(c2nc3ccccc3n2Cc2ccc(F)cn2)CC[C@H]1F [Example 189, (3R,4R)-4-fluoro-1-(1-((5-fluoropyridin-2-yl)methyl)-1H-benzo[d]imidazol-2-yl)piperidin-3-amine]
0.223 µM | CCN(CC(C)C#N)C(=O)Cn1c(N2CC[C@@H](F)[C@H](N)C2)nc2cc(F)c(F)cc21 (mixture of isomers) [Example 237, 2-(2-((3R,4R)-3-amino-4-fluoropiperidin-1-yl)-5,6-difluoro-1H-benzo[d]imidazol-1-yl)-N-(2-cyanopropyl)-N-ethylacetamide]
0.131 µM | COc1cc(F)cc2nc(N3CC[C@@H](F)[C@H](N)C3)n(CC(=O)N(C)CC(F)(F)F)c12 [Example 509, 2-(2-((3R,4R)-3-amino-4-fluoropiperidin-1-yl)-5-fluoro-7-methoxy-1H-benzo[d]imidazol-1-yl)-N-methyl-N-(2,2,2-trifluoroethyl)acetamide]
0.456 µM | C[C@H](c1ccc(C#N)cc1)n1c(N2CC[C@@H](F)[C@H](N)C2)nc2ccccc21 [Example 319, 4-((R)-1-(2-((3R,4R)-3-amino-4-fluoropiperidin-1-yl)-1H-benzo[d]imidazol-1-yl)ethyl)benzonitrile hydrochloride]
0.103 µM | CN(CC(F)(F)F)C(=O)Cn1c(N2CC[C@H](F)[C@H](N)C2)nc2ccc(F)cc21 (single isomer, unassigned) [Example 466]
5.68 µM | N[C@@H]1CCCN(c2nc3ccccc3n2Cc2ccc(C(F)F)cc2)C1 [Example 381, (R)-1-(1-(4-(difluoromethyl)benzyl)-1H-benzo[d]imidazol-2-yl)piperidin-3-amine]
3.17 µM | COCC1CN(C(=O)Cn2c(N3CC[C@@H](F)[C@H](N)C3)nc3cc(F)c(F)cc32)CCO1 (mixture of isomers) [Example 647, 2-(2-((3R,4R)-3-amino-4-fluoropiperidin-1-yl)-5,6-difluoro-1H-benzo[d]imidazol-1-yl)-1-(2-(methoxymethyl)morpholino) ethanone]
> 3.75 µM | COCCN(C(=O)Cn1c(N2CC[C@@H](F)[C@H](N)C2)nc2cc(F)c(F)cc21)C1CCS(=O)(=O)C1 (stereo partly drawn) [Example 538, 2-(2-((3R,4R)-3-amino-4-fluoropiperidin-1-yl)-5,6-difluoro-1H-benzo[d]imidazol-1-yl)-N-(1,1-dioxidotetrahydrothiophen-3-yl)-N-(2-methoxyethyl)acetamide]
0.000696 µM | N#Cc1ccc(Cn2c(N3CCC[C@H](N)C3)nc3ccc(Cl)cc32)nc1 [Example 1, (S)-6-((2-(3-aminopiperidin-1-yl)-6-chloro-1H-benzo[d]imidazol-1-yl)methyl)nicotinonitrile]
0.00224 µM | CN[C@@H]1CN(c2nc3cc(F)cc(F)c3n2[C@@H](C)c2ccc(C#N)cn2)CC[C@H]1F (single isomer, unassigned) [Example 441]
2.06 µM | N#Cc1ccc(Cn2c(N3C[C@@H](N)[C@H](c4ccccc4)C3)nc3ccccc32)cc1 (racemic) [Example 165, 4-((2-((3S,4R)-3-amino-4-phenylpyrrolidin-1-yl)-1H-benzo[d]imidazol-1-yl)methyl)benzonitrile & 4-((2-((3R,4S)-3 amino-4-phenylpyrrolidin-1-yl)-1H-benzo[d]imidazol-1-yl)methyl)benzonitrile]
0.0668 µM | N[C@@H]1CN(c2nc3cc(F)c(F)cc3n2Cc2ccc(C(F)(F)F)cc2)CC[C@H]1F [Example 361, (3R,4R)-1-(5,6-difluoro-1-(4-(trifluoromethyl)benzyl)-1H-benzimidazol-2-yl)-4-fluoro-3-piperidinamine]
0.186 µM | N[C@@H]1CN(c2nc3cc(F)c(F)cc3n2CC(=O)N(c2ccccc2)C2C=CS(=O)(=O)C2)CC[C@H]1F (mixture of isomers) [Example 515, 2-(2-((3R,4R)-3-amino-4-fluoropiperidin-1-yl)-5,6-difluoro-1H-benzo[d]imidazol-1-yl)-N-(1,1-dioxido-2,3-dihydrothiophen-3-yl)-N-phenylacetamide]

From patent US11332459B2 (TEIJIN PHARMA LIMITED, priority 2017, dated 2022)
